US20210147455A1 (SHAANXI SYNTHETIC PHARMACEUTICAL CO., LTD., priority 2018, published 2021)
Values joined by “and” are separate entries in the source; they are usually repeats but may differ in a detail not shown here. Identical values can stand only once.

Tests used:
[1] = Hygroscopicity study (Chinese Pharmacopoeia 2015, 9103); assay type: physicochemical; details: for Hygroscopic weight gain: 25° C.±1° C., saturated ammonium chloride solution, 24 hours; for Conclusion (hygroscopicity): after 24 hours
Method: Test method: • 1. A dried glass weighing bottle with stopper (having an outer diameter of 50 mm and a height of 15 mm) was placed in a thermostatic drier (a saturated ammonium chloride solution was placed on the lower part of the thermostatic drier) at an appropriate temperature of 25° C.±1° C. on the day earlier before the test, and the weight (m1) of weighing bottle was precisely weighed. • 2. An appropriate amount of test sample was taken and spread in the weighing bottle, and the thickness of the test sample was controlled to about 1 mm, and the weight (m2) was precisely weighed. • 3. The weighing bottle was opened and was placed, together with the bottle cap, under the above mentioned constant temperature and humidity condition for 24 hours. • 4. The weighing bottle was capped and precisely weighed to obtain the weight (m3).
Description of hygroscopicity characterization and delimitation of hygroscopicity weight gain: Deliquescence: enough moisture is absorbed to form a liquid. […] Slightly hygroscopic: hygroscopic weight gain is less than 2% but not less than 0.2%. Not or hardly hygroscopic: hygroscopic weight gain is less than 0.2%.

[2] = Stability experiments under 25° C.±2° C. and 65% R.H±5% R.H; details: 25° C./65% R.H
Text: • 1. […] The results are shown in detail in the following table.

[3] = Stability experiments under 40° C.±2° C. and 75% R.H±5% R.H (accelerated test); assay type: physicochemical; details: 40° C./75% R.H
[4] = month 3, Phosphate Monopotassium Salt
[5] = month 6, Phosphate Monopotassium Salt
[6] = month 9, Phosphate Monopotassium Salt
[7] = month 12, Phosphate Monopotassium Salt
[8] = month 24, Phosphate Monopotassium Salt

Row | Compound | Hygroscopic weight gain [1] [%] | Content ([2]; month 0) [%] | Description ([2]; month 0) | Related substance ([2]; month 0) [%] | Description ([2]; month 3) | Description ([2]; month 6) | Description ([2]; month 9) | Description ([2]; month 12) | Description ([2]; month 24) | Content ([3]; month 0) [%] | Description ([3]; month 0) | Related substance ([3]; month 0) [%] | Content ([3]; month 1) [%] | Description ([3]; month 1) | Related substance ([3]; month 1) [%] | Content ([3]; month 2) [%] | Description ([3]; month 2) | Related substance ([3]; month 2) [%] | Content ([3]; month 3) [%] | Description ([3]; month 3) | also measured
1 | CC[C@@H]([C@H](C)OP(=O)([O-])[O-])n1ncn(-c2ccc(N3CCN(c4ccc(OC[C@@H]5CO[C@@](Cn6cncn6)(c6ccc(F)cc6F)C5)cc4)CC3)cc2)c1=O.O.O.O.O.O.[Na+].[Na+] [Comparative Example 9, Posaconazole Phosphate Disodium Salt Pentahydrate] | 12.01 | 99.87 | White | 0.13 | White | White | White | White | White | 99.87 | White | 0.13 | 99.72 | White | 0.28 | 99.62 | White | 0.38 | 99.45 | White | Content ([2]; month 3): 99.73%; Related substance ([2]; month 3): 0.27%; Content ([2]; month 6): 99.68%; Related substance ([2]; month 6): 0.32%; Content ([2]; month 9): 99.51%; Related substance ([2]; month 9): 0.49%; Content ([2]; month 12): 99.41%; Related substance ([2]; month 12): 0.59%; Content ([2]; month 24): 98.87%; Related substance ([2]; month 24): 1.13%; Related substance ([3]; month 3): 0.55%; Content ([3]; month 6): 99.32%; Description ([3]; month 6): White; Related substance ([3]; month 6): 0.68%
2 | Posaconazole Phosphate Disodium Salt [Comparative Example 10] | 13.91 | 99.87 | White | 0.13 | White | White | White | White | White | 99.87 | White | 0.13 | 99.72 | White | 0.28 | 99.60 | White | 0.40 | 99.45 | White | Content ([2]; month 3): 99.72%; Related substance ([2]; month 3): 0.28%; Content ([2]; month 6): 99.62%; Related substance ([2]; month 6): 0.38%; Content ([2]; month 9): 99.57%; Related substance ([2]; month 9): 0.43%; Content ([2]; month 12): 99.40%; Related substance ([2]; month 12): 0.60%; Content ([2]; month 24): 98.84%; Related substance ([2]; month 24): 1.16%; Related substance ([3]; month 3): 0.55%; Content ([3]; month 6): 99.34%; Description ([3]; month 6): White; Related substance ([3]; month 6): 0.66%
3 | Posaconazole Phosphate Monopotassium Salt Trihydrate [Comparative Example 6] | 1.95 | 99.87 | White | 0.13 | White | White | White | White | White | 99.87 | White | 0.13 | 99.76 | White | 0.24 | 99.65 | White | 0.35 | 99.49 | White | Conclusion (hygroscopicity) [1]: Slight hygroscopicity; Content ([2]; month 3): 99.78%; Related substance ([2]; month 3): 0.22%; Content ([2]; month 6): 99.70%; Related substance ([2]; month 6): 0.30%; Content ([2]; month 9): 99.59%; Related substance ([2]; month 9): 0.41%; Content ([2]; month 12): 99.48%; Related substance ([2]; month 12): 0.52%; Content ([2]; month 24): 99.00%; Related substance ([2]; month 24): 1.00%; Related substance ([3]; month 3): 0.51%; Content ([3]; month 6): 99.38%; Description ([3]; month 6): White; Related substance ([3]; month 6): 0.62%
4 | Posaconazole Phosphate Monopotassium Salt [Comparative Example 3] | 1.56 | 99.87 | White | 0.13 | White | White | White | White | White | 99.87 | White | 0.13 | 99.75 | White | 0.25 | 99.64 | White | 0.36 | 99.51 | White | Conclusion (hygroscopicity) [1]: Slight hygroscopicity; Content [2, 4]: 99.73% and 99.80%; Related substance [2, 4]: 0.27% and 0.20%; Content [2, 5]: 99.67% and 99.68%; Related substance [2, 5]: 0.37% and 0.32%; Content [2, 6]: 99.55% and 99.59%; Related substance [2, 6]: 0.45% and 0.41%; Content [2, 7]: 99.41% and 99.48%; Related substance [2, 7]: 0.59% and 0.52%; Content [2, 8]: 98.88% and 99.03%; Related substance [2, 8]: 1.12% and 0.97%; Related substance ([3]; month 3): 0.49%; Content ([3]; month 6): 99.38%; Description ([3]; month 6): White; Related substance ([3]; month 6): 0.62%
5 | Posaconazole Phosphate Monosodium Salt Trihydrate [Comparative Example 7] | 1.86 | 99.87 | White | 0.18 | White | White | White | White | White | 99.87 | White | 0.13 | 99.77 | White | 0.23 | 99.63 | White | 0.37 | 99.50 | White | Conclusion (hygroscopicity) [1]: Slight hygroscopicity; Content ([2]; month 3): 99.78%; Related substance ([2]; month 3): 0.22%; Content ([2]; month 6): 99.71%; Related substance ([2]; month 6): 0.29%; Content ([2]; month 9): 99.61%; Related substance ([2]; month 9): 0.39%; Content ([2]; month 12): 99.51%; Related substance ([2]; month 12): 0.49%; Content ([2]; month 24): 98.98%; Related substance ([2]; month 24): 1.02%; Related substance ([3]; month 3): 0.50%; Content ([3]; month 6): 99.37%; Description ([3]; month 6): White; Related substance ([3]; month 6): 0.63%
